Measurements reported in patent US20060247231A1, “Amide and ester matrix metalloproteinase inhibitors” (Warner-Lambert Company LLC, priority 2003, published 2006).

Key:
Format in all cases: biochemical
[1] = target: T1, MMP-1FL (full length interstitial collagenase) (Homo sapiens, UniProt P03956); assay: MMP-1 full-length inhibition (Biological Methods 1, 2, or 5)
T1 sequence (P03956 100-469): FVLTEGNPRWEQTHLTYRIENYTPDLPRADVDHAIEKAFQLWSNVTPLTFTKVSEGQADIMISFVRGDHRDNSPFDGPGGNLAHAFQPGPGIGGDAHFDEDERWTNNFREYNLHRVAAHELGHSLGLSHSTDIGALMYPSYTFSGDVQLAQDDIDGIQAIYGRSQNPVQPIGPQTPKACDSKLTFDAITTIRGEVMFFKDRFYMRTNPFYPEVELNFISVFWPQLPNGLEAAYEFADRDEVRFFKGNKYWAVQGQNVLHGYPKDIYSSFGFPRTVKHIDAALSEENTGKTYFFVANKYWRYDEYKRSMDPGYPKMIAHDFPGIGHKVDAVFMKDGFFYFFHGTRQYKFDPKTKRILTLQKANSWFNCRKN
Experimental: (§1) Thiopeptolide substrates show virtually no decomposition or hydrolysis at or below neutral pH in the absence of a matrix metalloproteinase enzyme. A typical thiopeptolide substrate commonly utilized for assays is Ac-Pro-Leu-Gly-thioester-Leu-Leu-Gly-OEt. A 100 μL assay mixture will contain a suitable amount of the MMP enzyme such as an amount described in Ye Qi-Zhuang, et al., 1996, supra, 50 mM of N-2-hydroxyethylpiperazine-N′-2-ethanesulfonic acid buffer (“HEPES,” pH 7.0), 10 mM CaCl2, 100 μM thiopeptolide substrate, and 1 mM 5,5′-dithio-bis-(2-nitro-benzoic acid) (DTNB). The thiopeptolide substrate concentration may be varied, for example from 10 to 800 μM to obtain Km and Kcat values. The change in absorbance at 405 nm is monitored on a Thermo Max microplate reader (molecular Devices, Menlo Park, Calif.) at room temperature (22° C.). The calculation of the amount of hydrolysis of the thiopeptolide substrate is based on E412=13600 M^−1 cm^−1 for the DTNB-derived product 3-carboxy-4-nitrothiophenoxide. […]
(§2) Some representative compounds of Formula I have been evaluated according to Biological Method 1 for their ability to inhibit MMP-13 and other MMP enzymes, including MMP-1, MMP-2, MMP-3, MMP-7, MMP-8, MMP-9, MMP-12, MMP14, and MMP-17. Inhibitor activity versus other MMPs with the compounds may be determined using, for example, MMP-1FL, which refers to full length interstitial collagenase; MMP-2FL, which refers to full length Gelatinase A; MMP-3CD, which refers to the catalytic domain of stromelysin; MMP-7FL, which refers to full length matrilysin; MMP-9FL, which refers to full length Gelatinase B; MMP-13CD, which refers to the catalytic domain of collagenase 3; and MMP-14CD, which refers to the catalytic domain of MMP-14. […]
(§3) Shown below in Table 1 are the inhibition of MMP-13 catalytic domain, expressed as IC50's, for the compounds of Compound Examples A1 to A8, B1 to B4, and C1 in the column labelled “MMP-13CD IC50 (μM)”.

[2] = target: T2, MMP-13 catalytic domain (MMP-13CD) (Homo sapiens, UniProt P45452); assay: MMP-13 catalytic domain inhibition (Biological Methods 1, 2, or 5)
T2 construct: particularly MMP-13 catalytic domain (“MMP-13CD”)
Experimental: (§4) Thiopeptolide substrates show virtually no decomposition or hydrolysis at or below neutral pH in the absence of a matrix metalloproteinase enzyme. A typical thiopeptolide substrate commonly utilized for assays is Ac-Pro-Leu-Gly-thioester-Leu-Leu-Gly-OEt. A 100 μL assay mixture will contain a suitable amount of the MMP enzyme such as an amount described in Ye Qi-Zhuang, et al., 1996, supra, 50 mM of N-2-hydroxyethylpiperazine-N′-2-ethanesulfonic acid buffer (“HEPES,” pH 7.0), 10 mM CaCl2, 100 μM thiopeptolide substrate, and 1 mM 5,5′-dithio-bis-(2-nitro-benzoic acid) (DTNB). The thiopeptolide substrate concentration may be varied, for example from 10 to 800 μM to obtain Km and Kcat values. The change in absorbance at 405 nm is monitored on a Thermo Max microplate reader (molecular Devices, Menlo Park, Calif.) at room temperature (22° C.). The calculation of the amount of hydrolysis of the thiopeptolide substrate is based on E412=13600 M^−1 cm^−1 for the DTNB-derived product 3-carboxy-4-nitrothiophenoxide. Assays are carried out with and without matrix metalloproteinase inhibitor compounds, and the amount of hydrolysis is compared for a determination of inhibitory activity of the test compounds.
(§5) Test compounds are evaluated at various concentrations in order to determine their respective IC50 values, the micromolar concentration of compound required to cause a 50% inhibition of catalytic activity of the respective enzyme.
(§6) Test compounds can be evaluated according to Biological Method 1 at various concentrations in order to determine their respective IC50 values, typically the micromolar concentration of compound required to cause a 50% inhibition of the hydrolytic activity of the respective enzyme.
(§7) Some representative compounds of Formula I have been evaluated according to Biological Method 1 for their ability to inhibit MMP-13 and other MMP enzymes, including MMP-1, MMP-2, MMP-3, MMP-7, MMP-8, MMP-9, MMP-12, MMP14, and MMP-17. Inhibitor activity versus other MMPs with the compounds may be determined using, for example, MMP-1FL, which refers to full length interstitial collagenase; MMP-2FL, which refers to full length Gelatinase A; MMP-3CD, which refers to the catalytic domain of stromelysin; MMP-7FL, which refers to full length matrilysin; MMP-9FL, which refers to full length Gelatinase B; MMP-13CD, which refers to the catalytic domain of collagenase 3; and MMP-14CD, which refers to the catalytic domain of MMP-14.
(§8) The method of Biological Method 1, except thiopeptolide substrate is replaced with a fluorigenic peptide such as Fluorigenic peptide-1.
Fluorigenic peptide-1 substrate based assay for identifying compounds of Formula I as allosteric inhibitors of MMP-13:
• 50 mM HEPES buffer (pH 7.0) • 10 mM CaCl2 • 10 μM fluorigenic peptide-1 (“FP1”) substrate • 0 or 15 mM acetohydroxamic acid (AcNHOH)=1 Kd • 2% DMSO (with or without inhibitor test compound) • 0.5 nM MMP-13CD enzyme Stock Solutions: • 1) 10× assay buffer: 500 mM HEPES buffer (pH 7.0) plus 100 mM CaCl2 • 2) 10 mM FP1 substrate: (Mca)-Pro-Leu-Gly-Leu-(Dnp)-Dpa-Ala-Arg-NH2 (Bachem, M-1895; “A novel coumarin-labeled peptide for sensitive continuous assays of the matrix metalloproteinases,” Knight C. G., Willenbrock F., and Murphy, G., FEBS Lett., 1992;296:263-266). Is prepared 10 mM stock by dissolving 5 mg FP1 in 0.457 mL DMSO. • 3) 3 M AcNHOH: Is prepared by adding 4 mL H2O and 1 mL 10× assay buffer to 2.25 g AcNHOH (Aldrich 15,903-4). Adjusting pH to 7.0 with NaOH. Diluting volume to 10 mL with H2O. Final solution will contain 3 M AcNHOH, 50 mM HEPES buffer (pH 7.0), and 10 mM CaCl2. • 4) AcNHOH dilution buffer: 50 mM HEPES buffer (pH 7.0) plus 10 mM CaCl2 • 5) MMP-13CD enzyme: Stock concentration=250 nM. • 6) Enzyme dilution buffer: 50 mM HEPES buffer (pH 7.0), 10 mM CaCl2, and 0.005% BRU 35 detergent (Calbiochem 203728; Protein Grade, 10%) Procedure (For One 96-well Microplate): • A. Prepared assay mixture: […]

[3] = target: T3, MMP-17CD (Homo sapiens, UniProt Q9ULZ9); assay: MMP-17 catalytic domain inhibition (Biological Methods 1, 2, or 5)
T3 construct: MMP-17 catalytic domain (“MMP-17CD”)
T3 sequence (Q9ULZ9 126-295 limits assumed): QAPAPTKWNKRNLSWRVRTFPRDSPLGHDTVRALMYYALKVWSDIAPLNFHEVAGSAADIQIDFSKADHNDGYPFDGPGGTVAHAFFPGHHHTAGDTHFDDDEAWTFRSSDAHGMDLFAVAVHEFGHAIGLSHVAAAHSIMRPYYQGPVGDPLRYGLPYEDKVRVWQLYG
Experimental: as §4, §5, §6, §7, §8, §3

[4] = target: T4, MMP-7FL (full length matrilysin) (Homo sapiens, UniProt P09237); assay: MMP-7 full-length inhibition (Biological Methods 1, 2, or 5)
T4 sequence (P09237 95-267): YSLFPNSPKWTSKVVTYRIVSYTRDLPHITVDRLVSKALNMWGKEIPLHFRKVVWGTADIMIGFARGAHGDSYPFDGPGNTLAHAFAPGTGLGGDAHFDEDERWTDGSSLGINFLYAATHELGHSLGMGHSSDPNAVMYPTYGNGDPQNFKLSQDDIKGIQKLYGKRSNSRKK
Experimental: as §1, §2, §3

[5] = target: MMP-14CD (catalytic domain of MMP-14) (Homo sapiens, UniProt P50281); assay: MMP-14 catalytic domain inhibition (Biological Methods 1, 2, or 5)
Experimental: as §4, §5, §6, §7, §8, §3

[6] = target: MMP-3CD (catalytic domain of stromelysin) (Homo sapiens, UniProt P08254); assay: MMP-3 catalytic domain inhibition (Biological Methods 1, 2, or 5)
Experimental: as §4, §5
It should be appreciated that the assay buffer used with MMP-3CD was 50 mM N-morpholinoethane sulfonate (“MES”) at pH 6.0 rather than the HEPES buffer at pH 7.0 described above.
as §6, §7, §8, §3

[7] = target: T5, MMP-8FL (Homo sapiens, UniProt P22894); assay: MMP-8 full-length inhibition (Biological Methods 1, 2, or 5)
T5 construct: MMP-8 full-length
Experimental: as §4, §5, §6, §7, §8, §3

[8] = target: MMP-9FL (full length Gelatinase B) (Homo sapiens, UniProt P14780); assay: MMP-9 full-length inhibition (Biological Methods 1, 2, or 5)
Experimental: as §4, §5, §6, §7, §8, §3

[9] = target: T6, MMP-12CD (Homo sapiens, UniProt P39900); assay: MMP-12 catalytic domain inhibition (Biological Methods 1, 2, or 5)
T6 construct: MMP-12 catalytic domain (“MMP-12CD”)
Experimental: as §4, §5, §6, §7, §8, §3

T6 sequence (P39900 106-263 limits assumed): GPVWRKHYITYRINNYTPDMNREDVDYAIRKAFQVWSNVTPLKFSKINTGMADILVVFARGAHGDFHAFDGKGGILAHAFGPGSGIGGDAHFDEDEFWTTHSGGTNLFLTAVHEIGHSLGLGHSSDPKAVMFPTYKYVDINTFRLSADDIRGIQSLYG
T5 sequence (P22894 101-467): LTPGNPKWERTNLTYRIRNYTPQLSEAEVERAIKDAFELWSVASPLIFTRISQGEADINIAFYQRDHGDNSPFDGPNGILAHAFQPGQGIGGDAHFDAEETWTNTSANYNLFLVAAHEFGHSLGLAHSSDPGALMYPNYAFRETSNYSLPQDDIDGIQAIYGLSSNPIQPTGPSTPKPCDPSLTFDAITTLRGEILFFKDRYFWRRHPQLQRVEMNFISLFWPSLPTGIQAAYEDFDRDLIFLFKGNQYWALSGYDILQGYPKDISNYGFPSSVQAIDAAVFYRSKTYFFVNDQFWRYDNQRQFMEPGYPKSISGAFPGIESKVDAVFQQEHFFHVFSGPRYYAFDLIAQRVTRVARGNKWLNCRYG
Chain of MMP-9FL (full length Gelatinase B) (P14780 94-707): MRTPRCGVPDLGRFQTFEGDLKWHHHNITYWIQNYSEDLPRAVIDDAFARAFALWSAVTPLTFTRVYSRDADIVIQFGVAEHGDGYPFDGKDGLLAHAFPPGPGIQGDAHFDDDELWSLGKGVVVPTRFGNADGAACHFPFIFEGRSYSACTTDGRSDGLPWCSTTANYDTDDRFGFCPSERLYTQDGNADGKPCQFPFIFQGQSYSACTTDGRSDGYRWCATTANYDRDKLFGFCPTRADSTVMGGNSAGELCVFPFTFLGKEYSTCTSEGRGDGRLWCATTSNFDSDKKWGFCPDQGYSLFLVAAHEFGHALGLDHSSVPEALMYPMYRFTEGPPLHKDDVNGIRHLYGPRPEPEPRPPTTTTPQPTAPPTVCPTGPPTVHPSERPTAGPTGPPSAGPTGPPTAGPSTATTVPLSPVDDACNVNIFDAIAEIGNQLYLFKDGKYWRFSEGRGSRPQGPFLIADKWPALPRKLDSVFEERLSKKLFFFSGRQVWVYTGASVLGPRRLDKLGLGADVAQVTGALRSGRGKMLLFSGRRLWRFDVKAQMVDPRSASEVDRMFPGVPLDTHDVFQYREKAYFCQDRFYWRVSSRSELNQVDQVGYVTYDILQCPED
Chain of MMP-3CD (catalytic domain of stromelysin) (P08254 100-272 limits assumed): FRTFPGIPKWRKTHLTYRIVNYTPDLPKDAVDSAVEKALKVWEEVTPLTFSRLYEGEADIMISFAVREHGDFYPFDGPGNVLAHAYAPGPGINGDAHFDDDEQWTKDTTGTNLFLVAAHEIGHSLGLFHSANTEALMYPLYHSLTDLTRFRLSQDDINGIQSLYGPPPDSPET

COc1cccc(CC(=O)Nc2cc3c(=O)n(Cc4ccc(C(=O)O)cc4)cnc3cc2F)c1 [A2]
IC50 [1]: > 100 µM
IC50 [2]: 0.053 µM
IC50 [3]: > 100 µM
IC50 [4]: > 100 µM
IC50 [5]: > 100 µM
IC50 [6]: > 100 µM
IC50 [7]: > 100 µM

O=C(Cc1ccc(F)cc1)Nc1ccc2ncn(Cc3ccc(C(=O)O)cc3)c(=O)c2c1 [A4]
IC50 [1]: > 100 µM
IC50 [2]: 0.036 µM
IC50 [3]: > 100 µM
IC50 [4]: > 100 µM
IC50 [8]: > 100 µM
IC50 [5]: > 30 µM
IC50 [6]: > 100 µM
IC50 [7]: > 100 µM

O=C(Cc1cccc(F)c1)Nc1ccc2ncn(Cc3ccc(C(=O)O)cc3)c(=O)c2c1 [A5]
IC50 [1]: > 100 µM
IC50 [2]: 0.25 µM
IC50 [3]: > 100 µM
IC50 [4]: > 100 µM
IC50 [8]: > 100 µM
IC50 [5]: > 30 µM
IC50 [6]: > 100 µM
IC50 [7]: > 100 µM

COc1ccc(CC(=O)Nc2cc3c(=O)n(Cc4ccc(C(=O)O)cc4)cnc3cc2F)cc1 [A6]
IC50 [2]: 0.0053 µM

Cc1ccc(CC(=O)Nc2cc3c(=O)n(Cc4ccc(C(=O)O)cc4)cnc3cc2F)cc1 [A7]
IC50 [2]: 0.1 µM

O=C(Cc1ccc(O)cc1)Nc1cc2c(=O)n(Cc3ccc(C(=O)O)cc3)cnc2cc1F [A8]
IC50 [2]: 0.021 µM

COc1ccc(CC(=O)Nc2ccc3ccn(Cc4ccc(C(=O)O)cc4)c(=O)c3c2)cc1 [B2]
IC50 [2]: 0.013 µM
IC50 [3]: > 30 µM
IC50 [9]: > 30 µM
IC50 [8]: > 30 µM
IC50 [5]: > 30 µM
IC50 [6]: > 65 µM
IC50 [7]: > 30 µM

O=C(Cc1cccc(F)c1)Nc1ccc2ccn(Cc3ccc(C(=O)O)cc3)c(=O)c2c1 [B3]
IC50 [2]: 0.292 µM
IC50 [3]: > 30 µM
IC50 [9]: > 30 µM
IC50 [8]: > 30 µM
IC50 [5]: > 30 µM
IC50 [6]: > 65 µM
IC50 [7]: > 30 µM

O=C(Cc1ccc(F)cc1)Nc1ccc2ccn(Cc3ccc(C(=O)O)cc3)c(=O)c2c1 [B4]
IC50 [2]: 0.048 µM
IC50 [3]: > 30 µM
IC50 [9]: > 30 µM
IC50 [8]: > 30 µM
IC50 [5]: > 30 µM
IC50 [6]: > 65 µM
IC50 [7]: > 30 µM

COc1cccc(CC(=O)Nc2ccc3ncn(Cc4ccc(C(=O)O)cc4)c(=O)c3c2)c1 [Compound Example A1, 4-{6-[2-(3-Methoxy-phenyl)-acetylamino]-4-oxo-4H-quinazolin-3-ylmethyl}-benzoic acid]
IC50 [2]: 0.038 µM
IC50 [3]: > 30 µM
IC50 [9]: > 30 µM
IC50 [8]: > 30 µM
IC50 [5]: > 30 µM
IC50 [6]: > 65 µM
IC50 [7]: > 30 µM

COc1cccc(CC(=O)Nc2ccc3ccn(Cc4ccc(C(=O)O)cc4)c(=O)c3c2)c1 [Compound Example B1, 4-{7-[2-(3-Methoxy-phenyl)-acetylamino]-1-oxo-1H-isoquinolin-2-ylmethyl}-benzoic acid]
IC50 [2]: 0.053 µM
IC50 [3]: > 30 µM
IC50 [9]: > 30 µM
IC50 [8]: > 30 µM
IC50 [5]: > 30 µM
IC50 [6]: > 65 µM
IC50 [7]: > 30 µM
